The record followed here is patent US20210238184A1, “THERAPEUTIC COMPOUNDS” (Genentech, Inc., priority 2018, published 2021).

One experiment addresses TEAD2 YAP50-100 (Homo sapiens, UniProt Q15562). The experiment is described as follows: TEAD2:YAP50-100 protein-protein interaction HTRF (TR-FRET) assay. The note with it: His-tagged TEAD YAP binding domain (aa 217-447), biotinylated YAP peptide aa 50-100; 30 min pre-incubation, 60 min at room temperature; read-out: TEAD2 YAP50-100 HTRF WuXi EC50. As to the method: (§1) Purified His-tagged TEAD protein (YAP Binding Domain, amino acids 217-447) is pre-incubated with Europium labelled anti-His antibody tracer (Perkin Elmer Cat #AD0110). Small molecule Inhibitors are then incubated with the TEAD-Eu protein complex for 30 minutes to allow for binding to TEAD protein. Biotinylated YAP peptide (AA's 50-100) that has been pre-incubated with streptavidin x1665 acceptor (CIS-Bio Cat #610SAXAC) is added to the compound-TEAD mix. The TEAD-YAP-inhibitor mixture is then incubated for 60 minutes at room temperature. All reactions are carried out in a polystyrene plate. After 60 minutes, the plate is read on a plate reader using TR-FRET mode with wavelengths of 665 nm/615 nm. If YAP binds to TEAD as expected, a TR-FRET signal results from the proximity of YAP and TEAD after binding. If an inhibitor such as peptide 17 (Selleckchem Cat #S8164) interferes with YAP-TEAD binding, the disruption of the YAP:TEAD interaction results in a decrease in TR-FRET signal. The potency of compounds as YAP:TEAD protein-protein interaction (PPi) inhibitors is determined by an IC50 or EC50 value generated using a non-linear four parameter curve fit.

The target in a further experiment is TEAD3 YAP50-100 (Homo sapiens, UniProt Q99594). The experiment is described as follows: TEAD3:YAP50-100 protein-protein interaction HTRF (TR-FRET) assay. The note with it: His-tagged TEAD YAP binding domain (aa 217-447), biotinylated YAP peptide aa 50-100; 30 min pre-incubation, 60 min at room temperature; read-out: TEAD3 YAP50-100 HTRF WuXi EC50. The method, then:
as §1

Molecules are shown by their SMILES.

Sequence of TEAD3 YAP50-100 (Q99594 216-435 limits assumed): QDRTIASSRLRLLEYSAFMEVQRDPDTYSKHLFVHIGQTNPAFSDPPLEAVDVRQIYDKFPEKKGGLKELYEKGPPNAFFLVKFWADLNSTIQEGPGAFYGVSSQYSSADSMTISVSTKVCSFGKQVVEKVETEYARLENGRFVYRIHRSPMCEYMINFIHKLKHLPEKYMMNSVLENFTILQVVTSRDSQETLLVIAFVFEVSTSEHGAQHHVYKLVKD
Sequence of TEAD2 YAP50-100 (Q15562 217-447): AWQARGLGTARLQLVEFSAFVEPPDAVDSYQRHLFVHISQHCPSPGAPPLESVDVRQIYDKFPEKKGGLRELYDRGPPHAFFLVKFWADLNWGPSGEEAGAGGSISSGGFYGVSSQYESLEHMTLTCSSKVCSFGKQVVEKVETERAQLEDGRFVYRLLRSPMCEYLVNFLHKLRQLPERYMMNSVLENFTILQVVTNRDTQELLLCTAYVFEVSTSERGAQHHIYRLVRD

In the case of `CCNC(=O)c1cnn2c(=O)cc(-c3ccc(C(F)(F)F)cc3)[nH]c12` [Example 24, N-Ethyl-7-oxo-5-(4-(trifluoromethyl)phenyl)-4,7-dihydropyrazolo[1,5-a]pyrimidine-3-carboxamide], the figures for the concentration for a half-maximal effect (EC50) at TEAD2 YAP50-100 and at TEAD3 YAP50-100 were 80 nM and 4380 nM, respectively.
As to `CNC(=O)c1cnn2c(=O)cc(-c3ccc(C(F)(F)F)cc3)[nH]c12` [Example 25, N-methyl-7-oxo-5-(4-(trifluoromethyl)phenyl)-4,7-dihydropyrazolo[1,5-a]pyrimidine-3-carboxamide], the values for the 50% effective concentration (EC50) at TEAD2 YAP50-100 and on TEAD3 YAP50-100 were 212 nM and 10400 nM, respectively.
In the same order, the values of `CCOC(=O)c1cnn2c(=O)cc(-c3ccc(C(F)(F)F)c(C)c3)[nH]c12` [Example 26, Ethyl 5-(3-methyl-4-(trifluoromethyl)phenyl)-7-oxo-4,7-dihydropyrazolo[1,5-a]pyrimidine-3-carboxylate] are 956 nM and 1410 nM.
On to `O=C(NC1CC1)c1cnn2c(=O)cc(-c3ccc(C(F)(F)F)cc3)[nH]c12` [Example 27, N-Cyclopropyl-7-oxo-5-(4-(trifluoromethyl)phenyl)-4,7-dihydropyrazolo[1,5-a]pyrimidine-3-carboxamide], for which the EC50 was 211 nM on TEAD2 YAP50-100 and 3510 nM at TEAD3 YAP50-100.
Regarding `CCOC(=O)c1c(C)nn2c(=O)cc(-c3ccc(Oc4ccccc4)cc3)[nH]c12` [Example 28, Ethyl 2-methyl-7-oxo-5-(4-phenoxyphenyl)-4,7-dihydropyrazolo[1,5-a]pyrimidine-3-carboxylate], the results for the EC50 on TEAD2 YAP50-100 and at TEAD3 YAP50-100 were 3570 nM and 393 nM, respectively.
In the same order, the values of `CCOC(=O)c1c(C(C)C)nn2c(=O)cc(-c3ccc(Oc4ccccc4)cc3)[nH]c12` [Example 29, Ethyl 2-isopropyl-7-oxo-5-(4-phenoxyphenyl)-4,7-dihydropyrazolo[1,5-a]pyrimidine-3-carboxylate] are 249 nM and 124 nM.
Regarding `CCOC(=O)c1cnn2c(=O)cc(-c3ccc(C(C)(C)C)cc3)[nH]c12` [Example 30], the EC50 stood at 1620 nM at TEAD2 YAP50-100 and 95 nM on TEAD3 YAP50-100.
For `CCOC(=O)c1cnn2c(=O)cc(-c3ccc(OC(C)C)cc3)[nH]c12` [Example 31, Ethyl 5-(4-isopropoxyphenyl)-7-oxo-4,7-dihydropyrazolo[1,5-a]pyrimidine-3-carboxylate], the EC50 turned out to be 4040 nM at TEAD2 YAP50-100 and 944 nM on TEAD3 YAP50-100.
Take `CCOC(=O)c1cnn2c(=O)cc(-c3ccc(N(C)CC4CC4)cc3)[nH]c12` [Example 32, Ethyl 5-(4-((cyclopropylmethyl)(methyl)amino)phenyl)-7-oxo-4,7-dihydro pyrazolo[1,5-a]pyrimidine-3-carboxylate]: the EC50 at TEAD2 YAP50-100 came out at 3700 nM; on TEAD3 YAP50-100, 175 nM.
Regarding `CCOC(=O)c1cnn2c(=O)cc(-c3ccc(C4(c5ccccc5)CC4)cc3)[nH]c12` [Example 33, Ethyl 7-oxo-5-(4-(1-phenylcyclopropyl)phenyl)-4,7-dihydropyrazolo[1,5-a]pyrimidine-3-carboxylate], the results for the EC50 on TEAD2 YAP50-100 and on TEAD3 YAP50-100 were 2190 nM and 765 nM, respectively.
For `CCOC(=O)c1cnn2c(=O)cc(-c3ccc(-c4ccccc4)cc3)[nH]c12` [Example 34, Ethyl 5-([1,1^1-biphenyl]-4-yl)-7-oxo-4,7-dihydropyrazolo[1,5-a]pyrimidine-3-carboxylate], the EC50 is 1030 nM at TEAD2 YAP50-100 and 41 nM at TEAD3 YAP50-100.
The corresponding values for `O=C(c1cnn2c(=O)cc(-c3ccc(-c4ccccc4)cc3)[nH]c12)N1CCC1` [Example 35, 5-([1,1′-Biphenyl]-4-yl)-3-(azetidine-1-carbonyl)pyrazolo[1,5-a]pyrimidin-7(4H)-one] are 1630 nM and 95 nM.
Regarding `CN(C)C(=O)c1cnn2c(=O)cc(-c3ccc(C4CCC4)cc3)[nH]c12` [Example 36, 5-(4-Cyclobutylphenyl)-N,N-dimethyl-7-oxo-4,7-dihydropyrazolo[1,5-a]pyrimidine-3-carboxamide], the EC50 at TEAD2 YAP50-100 was determined as 1870 nM; at TEAD3 YAP50-100 it was 28 nM.
For the molecule `N#C[C@@H]1CCN(C(=O)c2cnn3c(=O)cc(-c4ccc(C5CCCCC5)cc4)[nH]c23)C1` [Example 37, (R)-1-(5-(4-Cyclohexylphenyl)-7-oxo-4,7-dihydropyrazolo[1,5-a]pyrimidine-3-carbonyl)pyrrolidine-3-carbonitrile], the EC50 was 8.79 nM on TEAD2 YAP50-100 and 52.2 nM at TEAD3 YAP50-100.
In the case of `O=C(c1cnn2c(=O)cc(-c3ccc(C4CCCCC4)cc3)[nH]c12)N1CC(C(F)F)C1` [Example 38, 5-(4-Cyclohexylphenyl)-3-(3-(difluoromethyl)azetidine-1-carbonyl)pyrazolo[1,5-a]pyrimidin-7(4H)-one], the EC50 was found to be 12 nM at TEAD2 YAP50-100 and 27 nM at TEAD3 YAP50-100.
Regarding `O=C(c1cnn2c(=O)cc(-c3ccc(C4CCCCC4)cc3)[nH]c12)N1CC(C(F)(F)F)C1` [Example 39, 5-(4-Cyclohexylphenyl)-3-(3-(trifluoromethyl)azetidine-1-carbonyl)pyrazolo[1,5-a]pyrimidin-7(4H)-one], the EC50 was found to be 295 nM on TEAD2 YAP50-100 and 405 nM on TEAD3 YAP50-100.
`CC1(F)CN(C(=O)c2cnn3c(=O)cc(-c4ccc(C5CCCCC5)cc4)[nH]c23)C1` [Example 40, 5-(4-Cyclohexylphenyl)-3-(3-fluoro-3-methylazetidine-1-carbonyl)pyrazolo[1,5-a]pyrimidin-7(4H)-one]: the EC50 came to 12.5 nM at TEAD2 YAP50-100 and 18.5 nM on TEAD3 YAP50-100.
Consider `O=C(c1cnn2c(=O)cc(-c3ccc(C4CCCCC4)cc3)[nH]c12)N1CC(CF)C1` [Example 41, 5-(4-Cyclohexylphenyl)-3-(3-(fluoromethyl)azetidine-1-carbonyl)pyrazolo[1,5-a]pyrimidin-7(4H)-one], for which the EC50 is 4.5 nM on TEAD2 YAP50-100 and 10 nM at TEAD3 YAP50-100.
In the case of `O=C(c1cnn2c(=O)cc(-c3ccc(C4CCCCC4)cc3)[nH]c12)N1CCC(F)(F)C1` [Example 42, 5-(4-Cyclohexylphenyl)-3-(3,3-difluoropyrrolidine-1-carbonyl)pyrazolo[1,5-a]pyrimidin-7(4H)-one], the EC50 on TEAD2 YAP50-100 is 14.5 nM; at TEAD3 YAP50-100, 39.5 nM.
In the same order, the values of `O=C(c1cnn2c(=O)cc(-c3ccc(C4CCCCC4)cc3)[nH]c12)N1CC[C@@H]1CF` [Example 43, (R)-5-(4-cyclohexylphenyl)-3-(2-(fluoromethyl)azetidine-1-carbonyl)pyrazolo[1,5-a]pyrimidin-7(4H)-one] are 22.5 nM and 28 nM.
As to `N#CC1CN(C(=O)c2cnn3c(=O)cc(-c4ccc(C5CCCCC5)cc4)[nH]c23)C1` [Example 44], the EC50 was found to be 5.85 nM at TEAD2 YAP50-100 and 13 nM on TEAD3 YAP50-100.
